Experimental data reported in ChEMBL document CHEMBL1154622, “Structure-guided design of potent and selective pyrimidylpyrrole inhibitors of extracellular signal-regulated kinase (ERK) using conformational control” (J Med Chem, 2009).
≈ marks a conversion by molar mass, not a printed value.

Assays:
[1] = molecular target: Mitogen-activated protein kinase kinase kinase 14 (Homo sapiens, UniProt Q99558); test: Inhibition of NIK
[2] = molecular target: Mitogen-activated protein kinase 8 (Homo sapiens) (UniProt P45983); test: Inhibition of JNK1 at 2 uM
[3] = molecular target: Tyrosine-protein kinase Mer (Homo sapiens) (UniProt Q12866); test: Inhibition of MER at 1 uM
[4] = molecular target: Serine/threonine-protein kinase TBK1 (Homo sapiens) (UniProt Q9UHD2); test: Inhibition of TBK1 at 1 uM
[5] = molecular target: Vascular endothelial growth factor receptor 1 (Homo sapiens) (UniProt P17948); test: Inhibition of FLT-1 at 1 uM
[6] = molecular target: Serine/threonine-protein kinase Nek1 (Homo sapiens) (UniProt Q96PY6); test: Inhibition of NEK1 at 1 uM
[7] = molecular target: Angiopoietin-1 receptor (Homo sapiens) (UniProt Q02763); test: Inhibition of TIE2 at 1 uM
[8] = Plasma concentration in mouse at 33 mg/kg, po after 8 hrs; assay type: ADME, organism-based; design: dose 33 mg/kg, route oral
[9] = molecular target: Macrophage colony-stimulating factor 1 receptor (Homo sapiens) (UniProt P07333); test: Inhibition of FMS at 1 uM
[10] = molecular target: Inhibitor of nuclear factor kappa-B kinase subunit beta (Homo sapiens) (UniProt O14920); settings: 2 uM
Description: Inhibition of IKK-beta at 2 uM

[11] = molecular target: Protein kinase C eta type (Homo sapiens) (UniProt P24723); test: Inhibition of PKCeta at 1 uM
[12] = AUC (0 to 8 hrs) in mouse at 5 mg/kg, iv; assay type: ADME, organism-based; design: time < 8 hr, dose 5 mg/kg, route intravenous; settings: plasma
[13] = molecular target: Tyrosine-protein kinase receptor TYRO3 (Homo sapiens) (UniProt Q06418); test: Inhibition of TYRO3 at 1 uM
[14] = molecular target: Ephrin type-B receptor 4 (Homo sapiens) (UniProt P54760); test: Inhibition of EPH-B4 at 1 uM
[15] = molecular target: Tyrosine-protein kinase JAK3 (Homo sapiens, UniProt P52333); test: Inhibition of JAK3
[16] = molecular target: Ribosomal protein S6 kinase alpha-2 (Homo sapiens) (UniProt Q15349); test: Inhibition of RSK3 at 1 uM
[17] = molecular target: Calcium/calmodulin-dependent protein kinase type II subunit alpha (Homo sapiens) (UniProt Q9UQM7); test: Inhibition of CAMK2 at 2 uM
[18] = Clearance in mouse at 5 mg/kg, iv; assay type: ADME, organism-based; design: dose 5 mg/kg, route intravenous; settings: in vivo
[19] = molecular target: Serine/threonine-protein kinase D3 (Homo sapiens) (UniProt O94806); test: Inhibition of PRKD3 at 1 uM
[20] = molecular target: Protein kinase C theta type (Homo sapiens) (UniProt Q04759); test: Inhibition of PKCtheta at 2 uM
[21] = molecular target: Serine/threonine-protein kinase TBK1 (Homo sapiens, UniProt Q9UHD2); test: Inhibition of NAK
[22] = Plasma concentration in mouse at 5 mg/kg, iv after 8 hrs; assay type: ADME, organism-based; design: dose 5 mg/kg, route intravenous
[23] = Inhibition of GSK3
[24] = Inhibition of PKA
[25] = molecular target: Tyrosine-protein kinase CSK (Homo sapiens) (UniProt P41240); test: Inhibition of CSK at 2 uM
[26] = Half life in rat at 10 mg/kg, po; assay type: ADME, organism-based; design: dose 10 mg/kg, route oral; settings: in vivo
[27] = molecular target: Inhibitor of nuclear factor kappa-B kinase subunit epsilon (Homo sapiens, UniProt Q14164); test: Inhibition of IKKi
[28] = molecular target: Vascular endothelial growth factor receptor 2 (Homo sapiens, UniProt P35968); test: Inhibition of KDR
[29] = molecular target: cAMP-dependent protein kinase catalytic subunit PRKX (Homo sapiens) (UniProt P51817); test: Inhibition of PRKX at 1 uM
[30] = Oral bioavailability in rat at 10 mg/kg; assay type: ADME, organism-based; settings: in vivo
[31] = Solubility in pH 7.4 buffer; assay type: physicochemical
[32] = molecular target: Cytoplasmic tyrosine-protein kinase BMX (Homo sapiens) (UniProt P51813); test: Inhibition of BMX at 1 uM
[33] = molecular target: Dual specificity mitogen-activated protein kinase kinase 1 (Homo sapiens, UniProt Q02750); test: Inhibition of MEK1
[34] = molecular target: Ribosomal protein S6 kinase alpha-6 (Homo sapiens) (UniProt Q9UK32); test: Inhibition of RSK4 at 1 uM
[35] = molecular target: Death-associated protein kinase 1 (Homo sapiens) (UniProt P53355); test: Inhibition of DAPK1 at 1 uM
[36] = molecular target: Serine/threonine-protein kinase Sgk3 (Homo sapiens) (UniProt Q96BR1); test: Inhibition of SGK3 at 1 uM
[37] = molecular target: Tyrosine-protein kinase Fer (Homo sapiens) (UniProt P16591); test: Inhibition of FER at 1 uM
[38] = molecular target: Cyclin-dependent kinase 1 (Homo sapiens) (UniProt P06493); test: Inhibition of CDK1 at 1 uM
[39] = molecular target: Phosphorylase b kinase gamma catalytic chain, liver/testis isoform (Homo sapiens) (UniProt P15735); test: Inhibition of PHKgamma2 at 1 uM
[40] = molecular target: Rho-associated protein kinase 1 (Homo sapiens, UniProt Q13464); test: Inhibition of ROCK1
[41] = molecular target: Mitogen-activated protein kinase kinase kinase kinase 4 (Homo sapiens) (UniProt O95819); test: Inhibition of MAP4K4 at 1 uM
[42] = molecular target: Fibroblast growth factor receptor 2 (Homo sapiens) (UniProt P21802); test: Inhibition of FGFR2 at 1 uM
[43] = molecular target: RAC-alpha serine/threonine-protein kinase (Homo sapiens) (UniProt P31749); test: Inhibition of AKT1 at 1 uM
[44] = molecular target: Serine/threonine-protein kinase PAK 1 (Homo sapiens) (UniProt Q13153); test: Inhibition of PAK1 at 1 uM
[45] = molecular target: Calcium/calmodulin-dependent protein kinase type IV (Homo sapiens) (UniProt Q16566); test: Inhibition of CAMK4 at 2 uM
[46] = molecular target: Dual specificity mitogen-activated protein kinase kinase 7 (Homo sapiens) (UniProt O14733); test: Inhibition of MKK7 at 2 uM
[47] = molecular target: Serine/threonine-protein kinase Nek2 (Homo sapiens) (UniProt P51955); test: Inhibition of NEK2 at 1 uM
[48] = molecular target: Serine/threonine-protein kinase Chk1 (Homo sapiens) (UniProt O14757); test: Inhibition of CHK1 at 2 uM
[49] = molecular target: Dual specificity protein kinase CLK3 (Homo sapiens) (UniProt P49761); settings: 1 uM
Description: Inhibition of CLK3 at 1 uM

[50] = molecular target: Tyrosine-protein kinase Yes (Homo sapiens) (UniProt P07947); test: Inhibition of YES at 1 uM
[51] = molecular target: Rho-associated protein kinase 2 (Homo sapiens) (UniProt O75116); test: Inhibition of ROCK 2 at 2 uM
[52] = molecular target: Interleukin-1 receptor-associated kinase 4 (Homo sapiens, UniProt Q9NWZ3); test: Inhibition of IRAK4
[53] = Distribution coefficient, log D of the compound; assay type: physicochemical; settings: octanol/water

Chain of Serine/threonine-protein kinase Nek1 (Homo sapiens) (Q96PY6 whole entry): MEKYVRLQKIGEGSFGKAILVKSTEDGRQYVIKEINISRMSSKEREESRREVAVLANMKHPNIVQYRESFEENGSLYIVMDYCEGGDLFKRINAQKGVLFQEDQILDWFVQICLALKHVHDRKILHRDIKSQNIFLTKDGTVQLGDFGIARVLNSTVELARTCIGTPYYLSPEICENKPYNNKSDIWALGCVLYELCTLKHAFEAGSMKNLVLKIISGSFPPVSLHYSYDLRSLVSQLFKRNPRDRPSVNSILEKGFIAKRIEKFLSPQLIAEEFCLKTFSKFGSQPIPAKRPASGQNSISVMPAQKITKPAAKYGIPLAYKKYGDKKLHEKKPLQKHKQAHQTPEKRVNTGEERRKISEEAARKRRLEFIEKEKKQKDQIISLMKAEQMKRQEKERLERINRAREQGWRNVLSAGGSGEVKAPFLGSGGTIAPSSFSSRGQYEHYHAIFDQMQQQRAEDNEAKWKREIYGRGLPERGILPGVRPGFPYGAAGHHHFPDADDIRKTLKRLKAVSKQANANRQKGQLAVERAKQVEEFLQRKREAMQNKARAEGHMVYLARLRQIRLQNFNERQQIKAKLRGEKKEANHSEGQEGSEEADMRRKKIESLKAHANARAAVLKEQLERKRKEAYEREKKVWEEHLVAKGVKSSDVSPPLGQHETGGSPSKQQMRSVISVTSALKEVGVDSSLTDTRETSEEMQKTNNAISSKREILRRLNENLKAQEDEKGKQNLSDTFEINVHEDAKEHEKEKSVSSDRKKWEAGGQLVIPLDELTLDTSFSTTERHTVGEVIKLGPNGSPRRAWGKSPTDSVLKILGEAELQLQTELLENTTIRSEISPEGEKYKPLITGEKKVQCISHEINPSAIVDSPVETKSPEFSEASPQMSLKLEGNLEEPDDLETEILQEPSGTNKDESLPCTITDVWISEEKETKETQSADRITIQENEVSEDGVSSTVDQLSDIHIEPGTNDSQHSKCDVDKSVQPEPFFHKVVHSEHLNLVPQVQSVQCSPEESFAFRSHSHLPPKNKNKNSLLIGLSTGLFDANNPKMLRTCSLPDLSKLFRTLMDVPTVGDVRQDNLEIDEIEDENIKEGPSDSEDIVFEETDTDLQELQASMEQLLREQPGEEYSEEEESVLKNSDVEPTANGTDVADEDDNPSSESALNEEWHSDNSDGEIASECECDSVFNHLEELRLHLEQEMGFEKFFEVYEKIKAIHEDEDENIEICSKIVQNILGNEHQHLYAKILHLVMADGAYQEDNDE
Chain of cAMP-dependent protein kinase catalytic subunit PRKX (Homo sapiens) (P51817 whole entry): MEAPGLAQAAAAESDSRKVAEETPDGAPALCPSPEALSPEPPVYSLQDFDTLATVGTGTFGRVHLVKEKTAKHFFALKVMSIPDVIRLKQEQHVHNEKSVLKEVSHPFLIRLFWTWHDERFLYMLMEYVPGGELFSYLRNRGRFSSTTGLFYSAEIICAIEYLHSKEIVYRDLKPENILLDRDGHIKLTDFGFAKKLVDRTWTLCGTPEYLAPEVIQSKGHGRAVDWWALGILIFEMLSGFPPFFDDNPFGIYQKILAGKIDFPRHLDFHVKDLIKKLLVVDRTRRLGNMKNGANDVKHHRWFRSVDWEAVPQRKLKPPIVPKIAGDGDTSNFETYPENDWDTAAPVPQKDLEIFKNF
Chain of Calcium/calmodulin-dependent protein kinase type IV (Homo sapiens) (Q16566 whole entry): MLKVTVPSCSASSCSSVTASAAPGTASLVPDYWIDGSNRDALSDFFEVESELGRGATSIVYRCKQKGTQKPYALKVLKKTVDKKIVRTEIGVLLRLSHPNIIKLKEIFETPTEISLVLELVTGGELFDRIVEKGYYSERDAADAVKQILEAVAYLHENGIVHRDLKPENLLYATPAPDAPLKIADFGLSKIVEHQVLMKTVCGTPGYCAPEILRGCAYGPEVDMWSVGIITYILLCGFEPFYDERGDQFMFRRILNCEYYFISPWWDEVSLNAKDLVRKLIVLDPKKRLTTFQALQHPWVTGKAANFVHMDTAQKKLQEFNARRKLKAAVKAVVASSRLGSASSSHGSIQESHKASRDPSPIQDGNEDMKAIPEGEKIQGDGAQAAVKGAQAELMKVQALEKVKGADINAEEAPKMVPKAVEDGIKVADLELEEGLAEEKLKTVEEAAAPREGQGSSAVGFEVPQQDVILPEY
Chain of Cyclin-dependent kinase 1 (Homo sapiens) (P06493 whole entry, looked up, canonical isoform): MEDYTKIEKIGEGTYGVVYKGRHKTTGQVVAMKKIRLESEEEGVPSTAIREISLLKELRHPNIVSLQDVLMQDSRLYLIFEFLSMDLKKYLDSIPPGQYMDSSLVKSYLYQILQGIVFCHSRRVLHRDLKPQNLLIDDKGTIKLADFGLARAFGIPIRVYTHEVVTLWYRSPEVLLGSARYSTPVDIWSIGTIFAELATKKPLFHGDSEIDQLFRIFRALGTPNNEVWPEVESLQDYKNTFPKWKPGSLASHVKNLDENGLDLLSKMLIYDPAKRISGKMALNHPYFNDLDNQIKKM
Chain of Ribosomal protein S6 kinase alpha-6 (Homo sapiens) (Q9UK32 whole entry): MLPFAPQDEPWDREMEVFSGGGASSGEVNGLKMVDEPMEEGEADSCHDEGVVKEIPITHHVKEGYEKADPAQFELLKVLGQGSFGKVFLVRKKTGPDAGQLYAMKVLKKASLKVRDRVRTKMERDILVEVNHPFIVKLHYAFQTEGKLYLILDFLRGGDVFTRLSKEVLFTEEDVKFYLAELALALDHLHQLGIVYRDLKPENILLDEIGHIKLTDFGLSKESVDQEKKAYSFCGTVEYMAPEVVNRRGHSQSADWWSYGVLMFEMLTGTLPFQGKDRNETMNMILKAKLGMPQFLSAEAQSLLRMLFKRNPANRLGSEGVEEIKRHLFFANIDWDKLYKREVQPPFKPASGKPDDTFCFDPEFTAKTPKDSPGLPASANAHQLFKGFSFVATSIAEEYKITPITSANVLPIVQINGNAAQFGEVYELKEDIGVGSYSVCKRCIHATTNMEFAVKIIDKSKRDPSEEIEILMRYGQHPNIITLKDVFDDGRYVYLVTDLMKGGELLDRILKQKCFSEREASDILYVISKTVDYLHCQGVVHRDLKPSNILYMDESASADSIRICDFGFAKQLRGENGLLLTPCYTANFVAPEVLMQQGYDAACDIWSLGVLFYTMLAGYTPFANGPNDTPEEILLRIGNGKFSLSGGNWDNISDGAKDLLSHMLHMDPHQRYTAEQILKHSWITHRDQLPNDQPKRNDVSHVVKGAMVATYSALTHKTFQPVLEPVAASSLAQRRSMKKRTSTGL
Chain of Ephrin type-B receptor 4 (Homo sapiens) (P54760 whole entry): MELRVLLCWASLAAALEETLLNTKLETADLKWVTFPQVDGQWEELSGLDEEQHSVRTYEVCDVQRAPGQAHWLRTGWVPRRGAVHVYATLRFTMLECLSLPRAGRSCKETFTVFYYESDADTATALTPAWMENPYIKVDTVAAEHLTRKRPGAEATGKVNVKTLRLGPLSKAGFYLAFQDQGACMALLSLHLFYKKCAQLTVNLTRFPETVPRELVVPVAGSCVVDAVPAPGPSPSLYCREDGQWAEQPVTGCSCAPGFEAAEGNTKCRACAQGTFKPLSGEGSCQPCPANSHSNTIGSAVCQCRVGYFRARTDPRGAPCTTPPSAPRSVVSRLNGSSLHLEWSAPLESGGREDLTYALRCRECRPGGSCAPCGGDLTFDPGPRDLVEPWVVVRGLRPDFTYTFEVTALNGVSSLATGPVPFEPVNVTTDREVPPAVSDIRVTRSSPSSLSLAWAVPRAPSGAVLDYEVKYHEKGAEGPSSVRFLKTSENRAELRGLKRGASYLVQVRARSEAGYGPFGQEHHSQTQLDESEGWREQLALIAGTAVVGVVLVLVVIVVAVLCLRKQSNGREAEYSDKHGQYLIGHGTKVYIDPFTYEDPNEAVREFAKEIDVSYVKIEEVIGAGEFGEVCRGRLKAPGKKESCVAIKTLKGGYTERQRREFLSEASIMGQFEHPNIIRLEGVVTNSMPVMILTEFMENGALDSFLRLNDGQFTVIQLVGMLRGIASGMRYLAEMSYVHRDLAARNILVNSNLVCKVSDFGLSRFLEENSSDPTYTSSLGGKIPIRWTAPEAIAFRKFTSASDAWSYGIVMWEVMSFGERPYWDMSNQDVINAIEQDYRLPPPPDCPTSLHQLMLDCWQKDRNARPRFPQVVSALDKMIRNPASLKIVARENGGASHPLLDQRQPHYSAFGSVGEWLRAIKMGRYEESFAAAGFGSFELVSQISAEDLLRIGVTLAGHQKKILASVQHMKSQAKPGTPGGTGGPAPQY
Chain of RAC-alpha serine/threonine-protein kinase (Homo sapiens) (P31749 whole entry): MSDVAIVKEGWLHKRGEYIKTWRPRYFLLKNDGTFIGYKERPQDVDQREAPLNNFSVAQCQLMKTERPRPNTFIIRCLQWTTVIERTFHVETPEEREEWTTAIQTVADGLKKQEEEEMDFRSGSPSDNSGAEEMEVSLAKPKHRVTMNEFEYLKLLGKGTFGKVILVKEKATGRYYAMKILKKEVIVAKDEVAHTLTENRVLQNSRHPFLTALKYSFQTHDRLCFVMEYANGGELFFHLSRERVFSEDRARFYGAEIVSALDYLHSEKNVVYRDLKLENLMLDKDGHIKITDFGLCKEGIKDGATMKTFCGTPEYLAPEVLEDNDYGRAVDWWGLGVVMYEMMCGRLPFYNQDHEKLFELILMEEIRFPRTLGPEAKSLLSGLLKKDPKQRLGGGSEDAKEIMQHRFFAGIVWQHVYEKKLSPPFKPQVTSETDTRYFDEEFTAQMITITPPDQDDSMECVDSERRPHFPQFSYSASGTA
Chain of Dual specificity mitogen-activated protein kinase kinase 7 (Homo sapiens) (O14733 whole entry): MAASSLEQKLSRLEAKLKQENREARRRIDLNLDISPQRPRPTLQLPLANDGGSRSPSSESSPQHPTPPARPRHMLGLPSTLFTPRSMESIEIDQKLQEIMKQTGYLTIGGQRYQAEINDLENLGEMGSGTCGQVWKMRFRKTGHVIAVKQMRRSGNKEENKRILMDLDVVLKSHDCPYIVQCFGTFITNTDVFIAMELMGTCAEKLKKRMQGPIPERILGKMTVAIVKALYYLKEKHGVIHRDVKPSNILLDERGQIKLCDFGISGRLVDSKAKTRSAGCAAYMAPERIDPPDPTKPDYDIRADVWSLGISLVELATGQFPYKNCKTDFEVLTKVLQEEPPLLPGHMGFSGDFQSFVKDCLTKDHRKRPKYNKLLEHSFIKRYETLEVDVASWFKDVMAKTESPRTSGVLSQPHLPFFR

## Cc1cnc(Nc2ccc(F)cc2Cl)nc1-c1c[nH]c(C(=O)N[C@H](CO)c2cccc(Cl)c2)c1
[1]
  Ki: > 5 µM
[2]
  inhibition: 34%
[3]
  inhibition: 9%
[4]
  inhibition: 3%
[5]
  inhibition: 0%
[6]
  inhibition: 6%
[7]
  inhibition: 0%
[8]
  concentration at 8 h: 0.122 µg/mL
[9]
  inhibition: 6%
[10]
  inhibition: 8%
[11]
  inhibition: 2%
[12]
  AUC(0-t) at 8 h: 1.6 µg·h/mL
[13]
  inhibition: 0%
[14]
  inhibition: 0%
[15]
  Ki: > 4 µM
[16]
  inhibition: 7%
[17]
  inhibition: 1%
[18]
  clearance: 3.3 L/h/kg
[19]
  inhibition: 21%
[20]
  inhibition: 17%
[21]
  Ki: > 10 µM
[22]
  concentration at 8 h: 0.017 µg/mL
[23]
  Ki: 0.395 µM
[24]
  Ki: > 4 µM
[25]
  inhibition: 0%
[26]
  half-life: 3 h
[27]
  Ki: > 5 µM
[28]
  Ki: > 4 µM
[29]
  inhibition: 3%
[30]
  bioavailability: 65%
[31]
  solubility: 10 µM (≈ 5 µg/mL)
[32]
  inhibition: 3%
[33]
  Ki: > 4 µM
[34]
  inhibition: 11%
[35]
  inhibition: 2%
[36]
  inhibition: 2%
[37]
  inhibition: 3%
[38]
  inhibition: 7%
[39]
  inhibition: 4%
[40]
  Ki: 1.4 µM
[41]
  inhibition: 18%
[42]
  inhibition: 12%
[43]
  inhibition: 0%
[44]
  inhibition: 3%
[45]
  inhibition: 0%
[46]
  inhibition: 6%
[47]
  inhibition: 3%
[48]
  inhibition: 40%
[49]
  inhibition: 9%
[50]
  inhibition: 5%
[51]
  inhibition: 57%
[52]
  Ki: > 4 µM
[53]
  logD: 4.3
